Literature values in PMC6644309 (ACS Omega, 2018).
Converted amounts (≈) assume the structure as drawn.

Columns and labels:
[1] = in vivo
[2] = not given; remark: listed apart in the source

SMILES: CCCc1nc2c(C)cc(-c3nc4ccccc4n3C)cc2n1Cc1ccc(-c2ccccc2C(=O)O)cc1 [TLM, 2-[4-[[4-methyl-6-(1-methylbenzimidazol-2-yl)-2-propylbenzimidazol-1-yl]methyl]phenyl]benzoic acid]
- solubility in water (in water): 0.09 µg/mL (≈ 0.175 µM)
- solubility at pH 3–7 (in words) (pH 3–7, physiological pH): practically insoluble
- bioavailability [1]: 42–58%
- pKa, benzimidazole (basic) group, first [2]: 4.1
- pKa, benzimidazole (basic) group, second [2]: 6.0
- pKa, carboxylic (acidic) group [2]: 3.5
